≈ marks a conversion by molar mass, not a printed value.
Legend:
[1] = tested on: Bemisia tabaci imagoes; assay: Indoor toxicity against Bemisia tabaci imagoes, liquid membrane impregnation method of blades; assay type: in vivo
Method: The liquid membrane impregnation method of blades was used. […] One tomato leaf was placed in each culture dish. Three repetitions per treatment, a leaf was soaked with water, dried, and then was placed in a culture dish to be used as a control. The Bemisia tabaci imagoes were gently patted into the culture dish, about 30 to 40 imagoes in each dish. The dishes were sealed with plastic wrap, several small holes were made on the plastic wrap to facilitate ventilation. After 24 hours, the death of Bemisia tabaci imagoes was checked under a binocular microscope (the anatomical needle was used to gently touch the Bemisia tabaci imagoes, and the motionless ones were regarded to be dead). Experimental data statistics and analysis were performed with spss 19 software.

[2] = tested on: Coptotermes formosanus Shiraki; assay: Indoor toxicity against Coptotermes formosanus Shiraki, topical drop with microinjector; assay type: in vivo
Method: Specifically, abamectin was diluted to 0.01 mg/L, 0.025 mg/L, 0.05 mg/L, 0.10 mg/L and 0.25 mg/L; tenvermectin A and tenvermectin B were diluted to 0.001 mg/L, 0.0025 mg/L, 0.005 mg/L, 0.01 mg/L and 0.025 mg/L. The termites to be tested were placed in culture dishes with a diameter of 15 cm, and 20 worker ants were placed in each dish. During the test, a microinjector was used to drop 1 μI of the solution to the thorax and abdome of each termite for a total of 3 repetitions. One fungus comb was placed in each dish for termites to inhabit and a wet absorbent cotton ball was placed to moisturize. After completing dropping the solution, the culture dish was placed in a chamber under a constant temperature of 18±1° C. and a constant humidity and was cultivated in dark conditions, the death conditions were observed 24 hours and 48 hours after dropping the solution respectively. A writing brush was used to touch the various parts of the bodies of the termites and the termites that are completely immobile were judged to be dead.

[3] = tested on: cabbage Phyllotreta; assay: Field efficacy test against cabbage Phyllotreta; assay type: in vivo; conditions: 1 day, 3 days and 7 days after medication
Method: In the laboratory, the above-mentioned original medicines were respectively formulated into the following formulations for later use: 1.8% abamectin emulsifiable concentrate, 1.8% tenvermectin A emulsifiable concentrate, 1.8% tenvermectin B emulsifiable concentrate, 5% imidacloprid emulsifiable concentrate, 5% acetamiprid emulsifiable concentrate, 2.5% lambda-cyhalothrin emulsifiable concentrate.
The test was conducted in Linhai City, and the test crop was cabbage, and the object to be controlled was Phyllotreta.
The experiment consisted of 7 treatments, 3 replicates per treatment, 21 sections in total. The sections were randomly arranged, the area for each section was 66.7 m^2. A type of knapsack manual sprayer was used to spray once, the amount of each section was calculated according to the amount of 50 ml/mu, and the leaves were sprayed evenly. Each treatment was isolated from each other to avoid mutual interference. A blank control was set, and the blank control was sprayed with water. The population base of insects was investigated before medication, and the number of live insects was investigated 1 day, 3 days, and 7 days after medication, and a total of 4 investigations were conducted. 20 plants were randomly investigated per section. The rate of reduction of population was calculated and the control effect was corrected. No other pesticides were used during the test. […]

[4] = tested on: Laodelphax striatellus imagoes; assay: whole plant or invertebrate
Method: Each original medicine was dissolved in DMF and formulated into a 10000 mg/L solution for later use.
Test insect source: The Laodelphax striatellus imagoes were collected in the rice fields of Jiaxing, Zhejiang, and were raised indoors with rice seedlings.
The soaking seedling method was used in this test. The test agents were diluted with tap water into five series of concentrations on the basis of pre-test to be used as test solutions. Specifically, lambda-cyhalothrin and imidacloprid were diluted to 5 mg/L, 10 mg/L, 25 mg/L, 50 mg/L and 100 mg/L; abamectin was diluted to 0.25 mg/L, 0.5 Mg/L, 1.0 mg/L, 2.5 mg/L and 5.0 mg/L; tenvermectin A was diluted to 0.05 mg/L, 0.10 mg/L, 0.25 mg/L, 0.5 mg/L and 1.0 mg/L. Rice seedlings that are sown indoors for about 25 days and have no rice planthopper eggs were taken, a few rice roots were left, the seedlings were soaked in pre-formed solution for 30 seconds then they were taken out and dried, and were put into a 3 cm×20 cm test tube. There was a little water at the bottom of the tube. 2-3 rice seedlings per tube, three repetitions per treatment, and the one treated with water was used as a control. Each tube receives 40-50 heads of Laodelphax striatellus, and the tubes were sealed with black cloth and were placed in a worm room under a temperature of (26±1) ° C. After 72 hours of treatment, the number of dead insects was checked. […] Experimental data statistics and analysis were performed using spss 19 software.
The relative toxicity index of the agent having the largest LC50 was set to be 1, and the relative toxicity index of each agent was determined by dividing the maximum LC50 by the LC50 value of each agent.

[5] = tested on: zebrafish; assay: Toxicity test on zebrafish, semi-static method; assay type: in vivo, Brachydanio rerio
Method: Test fish and water: zebrafish (Brachydanio rerio) were purchased from Zhejiang Academy of Agricultural Sciences and were of uniform size with an average body length of 2-3 cm and an average body weight of 0.3 g. They were domesticated for 7 days indoors before the test. The natural mortality rate was zero. Feeding was stopped 1 day before the test and the fish were not fed during the test. The test water was tap water after removing residual chlorine by exposure to the sun for more than 24 hours, and the pH was 6.8.
The sample was formulated into 50 mg/ml mother liquor with DMF.
Method: Semi-static method. Three level differences were set for each sample:
0.5 ppm, 1.0 ppm and 2.0 ppm, and three sets of parallels were set for each level difference, 10 zebrafish were raised for each group, and blank controls (one group without agents and one group with only solvent) were set. The corresponding volume of mother liquor was taken according to the concentration as required for each sample, and the volume of each sample was adjusted to 150 μl with DMF, and then each sample was added to the test group (containing 1.6 L of water). The room temperature was controlled at 22±2° C. for 96 hours, and the water was changed every 24 hours and the samples were re-added. The fish mortality rate was recorded for the first 8 hours and at 24, 48, 72, and 96 hours, and the dead fish were removed in time. Finally, the agents were divided into three grades according to the values of LC50: low-toxic pesticides with a LC50>10 ppm, middle-toxic pesticides with a LC50 of 1.0-10 ppm, and high-toxic pesticides with a LC50<1.0 ppm.

CO[C@H]1CC(OC2[C@H](C)OC(OC3/C(C)=C/C[C@@H]4C[C@@H](C[C@]5(CCC(C)[C@@H](C)O5)O4)OC(=O)[C@@H]4C=C(C)[C@@H](O)[C@H]5OC/C(=C\C=C\C3C)[C@]54O)C[C@@H]2OC)O[C@@H](C)C1O (stereo partly shown) [Tenvermectin A, tenvermectin A]
LC50 ([1]; Bemisia tabaci imagoes, soaked tomato leaves, death checked after 24 hours): 0.023 µg/mL (≈ 0.0276 µM) | Relative toxicity ([1]; maximum LC50 divided by LC50 of each agent, acetamiprid = 1): 110.478 | LC50 ([2]; in vivo): 0.0086 µg/mL (≈ 0.0103 µM) | Relative toxicity ([2]; maximum LC50 divided by LC50 of each agent, abamectin = 1): 4.77 | control effect on cabbage Phyllotreta (in words) [3]: no control effect | LC50 ([4]; in vivo): 0.296 µg/mL (≈ 0.355 µM) | Relative toxicity ([4]; maximum LC50 divided by LC50 of each agent, imidacloprid = 1): 107.490 | Surviving condition (survival rate %) ([5]; 0.5 ppm, 8 h): 100% | Surviving condition (survival rate %) ([5]; 0.5 ppm, 24 h): 100% | Surviving condition (survival rate %) ([5]; 0.5 ppm, 48 h): 100% | Surviving condition (survival rate %) ([5]; 0.5 ppm, 72 h): 100% | Surviving condition (survival rate %) ([5]; 0.5 ppm, 96 h): 100% | Surviving condition (survival rate %) ([5]; 1.0 ppm, 8 h): 100% | Surviving condition (survival rate %) ([5]; 1.0 ppm, 24 h): 100% | Surviving condition (survival rate %) ([5]; 1.0 ppm, 48 h): 100% | Surviving condition (survival rate %) ([5]; 1.0 ppm, 72 h): 100% | Surviving condition (survival rate %) ([5]; 1.0 ppm, 96 h): 100% | Surviving condition (survival rate %) ([5]; 2.0 ppm, 8 h): 100% | Surviving condition (survival rate %) ([5]; 2.0 ppm, 24 h): 100% | Surviving condition (survival rate %) ([5]; 2.0 ppm, 48 h): 100% | Surviving condition (survival rate %) ([5]; 2.0 ppm, 72 h): 93% | Surviving condition (survival rate %) ([5]; 2.0 ppm, 96 h): 80%

From patent US20190116795A1, “USE OF TENVERMECTIN IN CONTROL OF HARMFUL INSECTS IN AGRICULTURAL AND FOREST CROPS” (ZHEJIANG HISUN PHARMACEUTICAL CO., LTD., priority 2016, published 2019)
